Tested on: MV-4-11 cells
Assay: Gene expression microarray analysis (Affymetrix PrimeView) and GSEA
Assay type: cell-based, human
Parameters: RFU PODN (11730768_x_at) / Fold change /veh PODN (11730768_x_at) / RFU LINC00158 (11744669_a_at) / Fold change /veh LINC00158 (11744669_a_at) / RFU DUSP10 (11751237_a_at) / Fold change /veh DUSP10 (11751237_a_at) / RFU ID3 (11757404_x_at) / Fold change /veh ID3 (11757404_x_at) / RFU PLEKHG5 (11737974_s_at) / Fold change /veh PLEKHG5 (11737974_s_at) / RFU LRRC4B (11730491_at) / Fold change /veh LRRC4B (11730491_at) / RFU GIMAP4 (11747438_a_at) / Fold change /veh GIMAP4 (11747438_a_at) / RFU KRT8 (11758183_x_at) / Fold change /veh KRT8 (11758183_x_at) / RFU CNN1 (11734310_a_at) / Fold change /veh CNN1 (11734310_a_at) / RFU VPS37D (11726825_at) / Fold change /veh VPS37D (11726825_at) / RFU C10orf10 (11716522_x_at) / Fold change /veh C10orf10 (11716522_x_at) / RFU KIR2DL2 /// KIR2DL4 /// KIR2DL5A /// KIR2DL5B /// KIR2DS1 /// KIR2DS2 /// KIR2DS3 /// KIR2DS4 /// KIR3DL3 /// KIR3DL3 /// KIR3DS1 (11738374_at) / Fold change /veh KIR2DL2 /// KIR2DL4 /// KIR2DL5A /// KIR2DL5B /// KIR2DS1 /// KIR2DS2 /// KIR2DS3 /// KIR2DS4 /// KIR3DL3 /// KIR3DL3 /// KIR3DS1 (11738374_at) / RFU C1QL1 (11718748_at) / Fold change /veh C1QL1 (11718748_at) / RFU TMPRSS4 (11747572_a_at) / Fold change /veh TMPRSS4 (11747572_a_at) / RFU HAMP (11756126_x_at) / Fold change /veh HAMP (11756126_x_at) / RFU RNFT2 (11725882_a_at) / Fold change /veh RNFT2 (11725882_a_at) / RFU NR4A2 (11747474_a_at) / Fold change /veh NR4A2 (11747474_a_at) / RFU ABCC12 (11746883_a_at) / Fold change /veh ABCC12 (11746883_a_at) / RFU TMEM136 (11760407_x_at) / Fold change /veh TMEM136 (11760407_x_at) / RFU CLDN22 /// WWC2 (11732394_at) / Fold change /veh CLDN22 /// WWC2 (11732394_at) / RFU HLA-DPB1 (11760878_x_at) / Fold change /veh HLA-DPB1 (11760878_x_at) / RFU SPINT1 (11716480_a_at) / Fold change /veh SPINT1 (11716480_a_at) / RFU GAP43 (11754022_s_at) / Fold change /veh GAP43 (11754022_s_at) / RFU A4GNT (11735810_at) / Fold change /veh A4GNT (11735810_at) / RFU PRB3 (11715151_x_at) / Fold change /veh PRB3 (11715151_x_at) / RFU TUBB4B (11761932_at) / Fold change /veh TUBB4B (11761932_at) / RFU CAPN14 (11732068_a_at) / Fold change /veh CAPN14 (11732068_a_at) / RFU TMCC2 (11721928_a_at) / Fold change /veh TMCC2 (11721928_a_at) / RFU IRGQ (11745062_a_at) / Fold change /veh IRGQ (11745062_a_at) / RFU FAM174B (11720279_a_at) / Fold change /veh FAM174B (11720279_a_at) / RFU TMPRSS4 (11748680_a_at) / Fold change /veh TMPRSS4 (11748680_a_at) / RFU FAM212B (11763350_a_at) / Fold change /veh FAM212B (11763350_a_at) / RFU PLEKHG5 (11743358_a_at) / Fold change /veh PLEKHG5 (11743358_a_at) / RFU ZSCAN30 (11745921_a_at) / Fold change /veh ZSCAN30 (11745921_a_at) / RFU CMKLR1 (11741424_a_at) / Fold change /veh CMKLR1 (11741424_a_at) / RFU LOC101060620 /// MAPK8IP1 (11723275_at) / Fold change /veh LOC101060620 /// MAPK8IP1 (11723275_at) / RFU SPTSSB (11747773_x_at) / Fold change /veh SPTSSB (11747773_x_at) / RFU PRSS12 (11739890_at) / Fold change /veh PRSS12 (11739890_at) / RFU BIN1 (11741810_x_at) / Fold change /veh BIN1 (11741810_x_at) / RFU WNT11 (11732464_a_at) / Fold change /veh WNT11 (11732464_a_at) / RFU C10orf10 (11716521_a_at) / Fold change /veh C10orf10 (11716521_a_at) / RFU C5orf56 (11738089_at) / Fold change /veh C5orf56 (11738089_at) / RFU CYB561 (11721691_x_at) / Fold change /veh CYB561 (11721691_x_at) / RFU ANKRD19P (11752326_a_at) / Fold change /veh ANKRD19P (11752326_a_at) / RFU OR2T12 /// OR2T33 /// OR2T8 (11738714_s_at) / Fold change /veh OR2T12 /// OR2T33 /// OR2T8 (11738714_s_at) / RFU VCAN (11748164_a_at) / Fold change /veh VCAN (11748164_a_at) / RFU JSRP1 (11732532_at) / Fold change /veh JSRP1 (11732532_at) / RFU KRTAP10-11 (11738290_x_at) / Fold change /veh KRTAP10-11 (11738290_x_at) / RFU MYO3A (11730013_a_at) / Fold change /veh MYO3A (11730013_a_at) / RFU EBF3 (11725865_a_at) / Fold change /veh EBF3 (11725865_a_at) / RFU CAMK2N1 (11719241_x_at) / Fold change /veh CAMK2N1 (11719241_x_at) / RFU C5orf56 (11738088_a_at) / Fold change /veh C5orf56 (11738088_a_at) / RFU OLFML3 (11715873_a_at) / Fold change /veh OLFML3 (11715873_a_at) / RFU LOC100653217 /// NTM (11731650_a_at) / Fold change /veh LOC100653217 /// NTM (11731650_a_at) / RFU MAPK11 (11762145_a_at) / Fold change /veh MAPK11 (11762145_a_at) / RFU FIZ1 (11724087_x_at) / Fold change /veh FIZ1 (11724087_x_at) / RFU OASL (11726364_x_at) / Fold change /veh OASL (11726364_x_at) / RFU SOX15 (11748057_x_at) / Fold change /veh SOX15 (11748057_x_at) / RFU CD79A (11719716_a_at) / Fold change /veh CD79A (11719716_a_at) / RFU HIST1H1D (11736915_at) / Fold change /veh HIST1H1D (11736915_at) / RFU CASKIN2 (11723855_a_at) / Fold change /veh CASKIN2 (11723855_a_at) / RFU LOC730098 (11760151_x_at) / Fold change /veh LOC730098 (11760151_x_at) / RFU OR4N2 (11742367_at) / Fold change /veh OR4N2 (11742367_at) / RFU PRRT2 (11749266_a_at) / Fold change /veh PRRT2 (11749266_a_at) / RFU SNX32 (11753110_a_at) / Fold change /veh SNX32 (11753110_a_at) / RFU CDHR5 (11726645_a_at) / Fold change /veh CDHR5 (11726645_a_at) / RFU RCAN1 (11760418_a_at) / Fold change /veh RCAN1 (11760418_a_at) / RFU FAM167A (11723789_a_at) / Fold change /veh FAM167A (11723789_a_at) / RFU FAM26E (11764081_at) / Fold change /veh FAM26E (11764081_at) / RFU ISYNA1 (11749810_s_at) / Fold change /veh ISYNA1 (11749810_s_at) / RFU ACY1 (11761880_at) / Fold change /veh ACY1 (11761880_at) / RFU 11764098_at / Fold change /veh 11764098_at / RFU SAMD14 (11745864_x_at) / Fold change /veh SAMD14 (11745864_x_at) / RFU NPB (11741838_a_at) / Fold change /veh NPB (11741838_a_at) / RFU TMPRSS6 (11731388_a_at) / Fold change /veh TMPRSS6 (11731388_a_at) / RFU KRTAP10-2 (11738614_at) / Fold change /veh KRTAP10-2 (11738614_at) / RFU ARHGAP8 /// PRR5-ARHGAP8 (11727945_x_at) / Fold change /veh ARHGAP8 /// PRR5-ARHGAP8 (11727945_x_at) / RFU KRTAP5-7 /// NADSYN1 (11734609_at) / Fold change /veh KRTAP5-7 /// NADSYN1 (11734609_at) / RFU RASL12 (11751679_a_at) / Fold change /veh RASL12 (11751679_a_at) / RFU CDKN2B (11736163_a_at) / Fold change /veh CDKN2B (11736163_a_at) / RFU PRF1 (11729649_at) / Fold change /veh PRF1 (11729649_at) / RFU, ZNF638 /// ZNF638-IT1 / Fold change vs veh, ZNF638 /// ZNF638-IT1 / RFU, PANK3 / Fold change vs veh, PANK3 / RFU, SH3YL1 / Fold change vs veh, SH3YL1 / RFU, ZEB2 / Fold change vs veh, ZEB2 / RFU, NRIP1 / Fold change vs veh, NRIP1 / RFU, PTTG1IP / Fold change vs veh, PTTG1IP / RFU, CAPN2 / Fold change vs veh, CAPN2 / RFU, MED14 / Fold change vs veh, MED14 / RFU, SNORA58 / Fold change vs veh, SNORA58 / RFU, C1orf63 / Fold change vs veh, C1orf63 / RFU, LRRFIP1 / Fold change vs veh, LRRFIP1 / RFU, NDUFAF7 / Fold change vs veh, NDUFAF7 / RFU, SLC12A2 / Fold change vs veh, SLC12A2 / RFU, IBTK / Fold change vs veh, IBTK / RFU, ESF1 / Fold change vs veh, ESF1 / Fold change vs veh, TMEM50B / RFU, TAOK1 / Fold change vs veh, TAOK1 / RFU, ACBD3 / Fold change vs veh, ACBD3 / RFU, TMA16 / Fold change vs veh, TMA16 / RFU, RWDD3 / Fold change vs veh, RWDD3 / RFU, BCAT1 / Fold change vs veh, BCAT1 / RFU, EDEM3 / Fold change vs veh, EDEM3 / RFU, TMEM33 / Fold change vs veh, TMEM33 / RFU, WDR75 / Fold change vs veh, WDR75 / RFU, AHCTF1 / Fold change vs veh, AHCTF1 / RFU, TFRC / Fold change vs veh, TFRC / RFU, ZDHHC17 / Fold change vs veh, ZDHHC17 / RFU, NOM1 / Fold change vs veh, NOM1 / RFU, ARL8B / Fold change vs veh, ARL8B / RFU, ZBTB11 / Fold change vs veh, ZBTB11 / RFU, TAMM41 / Fold change vs veh, TAMM41 / RFU, KIAA1704 /// LOC100996395 / Fold change vs veh, KIAA1704 /// LOC100996395 / RFU, ING1 / Fold change vs veh, ING1 / RFU, TRMT61B / Fold change vs veh, TRMT61B / RFU, FUBP3 / Fold change vs veh, FUBP3 / RFU, TP53 / Fold change vs veh, TP53 / RFU, TNKS2 / Fold change vs veh, TNKS2 / RFU, ZFP14 / Fold change vs veh, ZFP14 / RFU, ACTR2 / Fold change vs veh, ACTR2 / RFU, PPP3R1 / Fold change vs veh, PPP3R1 / RFU, PIK3R1 / Fold change vs veh, PIK3R1 / RFU, HNRNPA1 / Fold change vs veh, HNRNPA1 / RFU, RNF170 / Fold change vs veh, RNF170 / RFU, ZNF28 / Fold change vs veh, ZNF28 / RFU, RNGTT / Fold change vs veh, RNGTT / RFU, OGT / Fold change vs veh, OGT / RFU, BRD1 / Fold change vs veh, BRD1 / RFU, MARS / Fold change vs veh, MARS / RFU, ZNF655 / Fold change vs veh, ZNF655 / RFU, FAHD1 / Fold change vs veh, FAHD1 / RFU, BDP1 / Fold change vs veh, BDP1 / RFU, LRRCC1 / Fold change vs veh, LRRCC1 / RFU, ARID1A / Fold change vs veh, ARID1A / RFU, ZNF146 / Fold change vs veh, ZNF146 / RFU, ZNF330 / Fold change vs veh, ZNF330 / RFU, GPN3 / Fold change vs veh, GPN3 / RFU, C9orf123 / Fold change vs veh, C9orf123 / RFU, N4BP2L2 / Fold change vs veh, N4BP2L2 / RFU, ARFIP1 / Fold change vs veh, ARFIP1 / RFU, FAM179B / Fold change vs veh, FAM179B / RFU, BCL10 / Fold change vs veh, BCL10 / RFU, UHRF1BP1L / Fold change vs veh, UHRF1BP1L / RFU, BET1 / Fold change vs veh, BET1 / RFU, CNOT2 / Fold change vs veh, CNOT2 / RFU, ZNF268 / Fold change vs veh, ZNF268 / Fold change vs veh, ZNF507 / RFU, DGCR2 / Fold change vs veh, DGCR2 / RFU, WDSUB1 / Fold change vs veh, WDSUB1 / Fold change vs veh, HSP90B1 /// MIR3652 / RFU, ADSS / Fold change vs veh, ADSS / RFU, GK / Fold change vs veh, GK / RFU, ZNF148 / Fold change vs veh, ZNF148 / RFU, TAF9 / Fold change vs veh, TAF9 / RFU, SLC1A5 / Fold change vs veh, SLC1A5 / RFU, SLMO2 / Fold change vs veh, SLMO2 / RFU, ABCC4 / Fold change vs veh, ABCC4 / RFU, LOC101060439 /// RAP1B / Fold change vs veh, LOC101060439 /// RAP1B / RFU, RFX7 / Fold change vs veh, RFX7 / RFU, GTPBP10 / Fold change vs veh, GTPBP10 / RFU, CNEP1R1 / Fold change vs veh, CNEP1R1 / RFU, BIVM-ERCC5 /// ERCC5 / Fold change vs veh, BIVM-ERCC5 /// ERCC5 / RFU, ILF3 / Fold change vs veh, ILF3 / RFU 11762660_at / Fold change /veh 11762660_at / RFU VCAN (11757783_s_at) / Fold change /veh VCAN (11757783_s_at) / RFU DDX43 (11728927_at) / Fold change /veh DDX43 (11728927_at) / RFU KRT8 (11758188_x_at) / Fold change /veh KRT8 (11758188_x_at) / RFU NKD1 (11759106_at) / Fold change /veh NKD1 (11759106_at) / RFU SRD5A1 (11742802_a_at) / Fold change /veh SRD5A1 (11742802_a_at) / RFU TPSAB1 /// TPSB2 (11721975_s_at) / Fold change /veh TPSAB1 /// TPSB2 (11721975_s_at) / RFU GSTM3 (11746129_a_at) / Fold change /veh GSTM3 (11746129_a_at) / RFU IL23R (11737362_x_at) / Fold change /veh IL23R (11737362_x_at) / RFU TMEM51 (11727254_a_at) / Fold change /veh TMEM51 (11727254_a_at) / RFU PIWIL2 (11732686_x_at) / Fold change /veh PIWIL2 (11732686_x_at) / RFU ORM1 (11744905_x_at) / Fold change /veh ORM1 (11744905_x_at) / RFU CCDC152 (11743942_at) / Fold change /veh CCDC152 (11743942_at) / RFU ECM1 (11717891_a_at) / Fold change /veh ECM1 (11717891_a_at) / RFU IL23R (11748794_a_at) / Fold change /veh IL23R (11748794_a_at) / RFU TNFAIP8L3 (11732012_x_at) / Fold change /veh TNFAIP8L3 (11732012_x_at) / RFU MBOAT4 (11741988_at) / Fold change /veh MBOAT4 (11741988_at) / RFU 11764193_at / Fold change /veh 11764193_at / RFU TMEM53 (11763286_at) / Fold change /veh TMEM53 (11763286_at) / RFU MAGEB2 (11727129_at) / Fold change /veh MAGEB2 (11727129_at) / RFU TMEM200A (11744735_a_at) / Fold change /veh TMEM200A (11744735_a_at) / RFU CCDC152 (11751479_a_at) / Fold change /veh CCDC152 (11751479_a_at) / RFU FAM211A (11726209_a_at) / Fold change /veh FAM211A (11726209_a_at) / RFU RGS16 (11746705_a_at) / Fold change /veh RGS16 (11746705_a_at) / RFU VCAN (11755009_s_at) / Fold change /veh VCAN (11755009_s_at) / RFU RHOB (11743442_s_at) / Fold change /veh RHOB (11743442_s_at) / RFU RGS16 (11720943_a_at) / Fold change /veh RGS16 (11720943_a_at) / RFU RGS16 (11720944_at) / Fold change /veh RGS16 (11720944_at) / RFU, VPS4B / Fold change vs veh, VPS4B / RFU, CREB1 / Fold change vs veh, CREB1 / RFU, DNAJC13 / Fold change vs veh, DNAJC13 / RFU, GNAQ / Fold change vs veh, GNAQ / RFU, CDK5R1 / Fold change vs veh, CDK5R1 / RFU, ZRANB3 / Fold change vs veh, ZRANB3 / RFU, CUL4A / Fold change vs veh, CUL4A / RFU, CCNY / Fold change vs veh, CCNY / RFU, UFL1 / Fold change vs veh, UFL1 / RFU, COG3 / Fold change vs veh, COG3 / RFU, DIAPH2 / Fold change vs veh, DIAPH2 / RFU, SKA2 / Fold change vs veh, SKA2 / RFU, AFF3 / Fold change vs veh, AFF3 / RFU, LMF1 / Fold change vs veh, LMF1 / RFU, IPO11 / Fold change vs veh, IPO11 / RFU, DFFB / Fold change vs veh, DFFB / RFU, FOXP1 / Fold change vs veh, FOXP1 / RFU, CARD8 / Fold change vs veh, CARD8 / RFU, STRN3 / Fold change vs veh, STRN3 / RFU, ADK / Fold change vs veh, ADK / RFU, RASSF2 / Fold change vs veh, RASSF2 / RFU, WIPF1 / Fold change vs veh, WIPF1 / RFU, LARP1B / Fold change vs veh, LARP1B / RFU, RASA1 / Fold change vs veh, RASA1 / RFU, RB1 / Fold change vs veh, RB1 / RFU, PPFIA1 / Fold change vs veh, PPFIA1 / RFU, MAT2A / Fold change vs veh, MAT2A / RFU, CCT5 / Fold change vs veh, CCT5 / RFU, WDR92 / Fold change vs veh, WDR92 / RFU, CUX1 / Fold change vs veh, CUX1 / RFU, TTC7A / Fold change vs veh, TTC7A / RFU, TMEM135 / Fold change vs veh, TMEM135 / RFU, DEPTOR / Fold change vs veh, DEPTOR / RFU, CPM / Fold change vs veh, CPM / RFU, DNAJB6 / Fold change vs veh, DNAJB6 / RFU, CACNA2D3 / Fold change vs veh, CACNA2D3 / RFU, DTX4 / Fold change vs veh, DTX4 / RFU, TFCP2 / Fold change vs veh, TFCP2 / RFU, GMCL1 /// GMCL1P1 / Fold change vs veh, GMCL1 /// GMCL1P1 / RFU, AEBP2 / Fold change vs veh, AEBP2 / RFU, SNHG1 /// SNORD22 /// SNORD25 /// SNORD26 /// SNORD27 /// SNORD28 /// SNORD29 /// SNORD31 / Fold change vs veh, SNHG1 /// SNORD22 /// SNORD25 /// SNORD26 /// SNORD27 /// SNORD28 /// SNORD29 /// SNORD31 / Fold change (Aza/veh), C12orf56 (ProbeSet 11735607_a_at) / Fold change (ACY-1035/veh), C12orf56 (ProbeSet 11735607_a_at) / Fold change (Aza/veh), FGFR1OP (ProbeSet 11751329_s_at) / Fold change (ACY-1035/veh), FGFR1OP (ProbeSet 11751329_s_at) / Fold change (Aza/veh), VPS36 (ProbeSet 11739960_a_at) / Fold change (ACY-1035/veh), VPS36 (ProbeSet 11739960_a_at) / RFU SYPL1 (11715823_x_at) / Fold change /veh SYPL1 (11715823_x_at) / RFU IGFBP7 (11715501_s_at) / Fold change /veh IGFBP7 (11715501_s_at) / RFU REEP3 (11722064_at) / Fold change /veh REEP3 (11722064_at) / RFU IGLL1 (11728026_x_at) / Fold change /veh IGLL1 (11728026_x_at): dose or concentration left out as unconfirmed
Settings: MV-4-11 cells, 48 hours

SMILES: Nc1ccc(-c2cccs2)cc1NC(=O)c1ccc2c(c1)cc(C1CC1)n2CCN1CCOCC1 [ACY-1035]
- RFU PLEKHG5 (11743358_a_at): 36.52 RFU

From paper PMC5218480 (PLoS ONE, 2017)
